Results as given in US10085445B2, “Biocorrosion inhibitor for metal” (KURARAY CO., LTD., priority 2013, dated 2018).
In brackets after ≈: the same amount, converted by molar mass.

Experiments:
male CRj:CD(SD) rats = assay: Oral toxicity test (14-day repeated dose); format: in vivo, rat; conditions: for NOEL (No Observed Effect Level): oral gavage once per day for 14 days, male rats
Source text: A test substance was emulsified and dispersed in 2%-gum arabic aqueous solution (containing 0.5%-Tween80), and forcibly administered to 6-week-old male CRj:CD(SD) rats with an oral gavage needle once per day for 14 days. The body weight variation and general condition were observed during the dosing period. The rats were fasted for one day from the final administration day (with free ingestion of drinking water), and anatomy, collection of blood samples (various blood tests), and mass measurement of the major organs were performed the next day of the final administration. In addition, histopathological examination (optical microscopic observation of HE-stained sliced section) of the liver, kidney, spleen and testis was also performed. The dose was 1000, 250, 60, 15 or 0 mg/k day (administered liquid amount=1 ml/100 g (body weight)/day), and 5 rats were used for each dose.

[1] = tested on: Pseudokirchneriella subcapitata; assay: Toxicity test on algae (algae growth inhibitory test, OECD 201); format: cell-based; conditions: Selenastrum capricornutum; 72 hr, 23° C., growth inhibition; read-out: ErC50 (72 hr)
Method: By reference to the OECD test guideline No. 201, an algae growth inhibitory test of a test substance was performed. To be specific, the following test substance was diluted with a test medium to give a defined dose. A suspension of algae grown to the exponential growth phase by preculture was added at an initial concentration of 1×10^4 cells/ml. After shaking culture in a light irradiation-type bio shaker (Bio Shaker BR-180 LF manufactured by TAITEC) at 23° C., algae cells were counted by a flow cytometer (Cell Lab Quant SC manufactured by BECKMAN COULTER) at 24, 48, and 72 hr from the start of the test, and the growth degree of each test dose was calculated based on the growth degree of the normal control as 100%. Also, ErC50 was calculated from the equation of the approximate curve in a graph plotting the growth inhibitory rate. As a standard substance, potassium dichromate was used.
algae: Pseudokirchneriella subcapitata
test substance (1) and test substance (2), 100, 32, 10, 3.2, 1, 0.32 mg/L (geometric ratio: √{square root over ( )}10) and 0 mg/L (normal control), respectively
standard substance: 3.2, 1, 0.32 mg/L and 0 mg/L (normal control)

[2] = tested on: sludge in the sewage treatment plant; assay: Bactericidal test on sludge (MTT method); format: cell-based; conditions: 24 hr and 48 hr, about 25° C., visual and MTT
Method: Glucose, peptone, and monopotassium dihydrogen phosphate (each 5 g) were dissolved in water (1 L), and adjusted to pH 7.0±1.0 with sodium hydroxide to give synthetic sewer water, to which sludge in the sewage treatment plant in Mizushima area, Kurashiki-shi, Okayama-ken, Japan, was added at 30 ppm based on dry mass, whereby a bacterial culture was prepared. On the other hand, a test substance was diluted with distilled water in 10 phases to a final concentration of 1000-0.004 ppm (geometric ratio=4) on a 24 well microplate, and used as a test solution. Two wells were used for each concentration. As a comparison target, distilled water+bacterial culture was used as “bacterial culture blank”, and distilled water alone was used as “blank”.
The bacterial culture and test solution prepared above were mixed at a volume ratio 1:1, stood in a thermostatic tank at ambient temperature (about 25° C.) for 24 hr and 48 hr, and the level of sludge influence at each concentration of the test substance was visually observed and confirm by the MTT method. MTT reagent is converted by microorganism mitochondria in the sludge, forms formazan and develops a blue color.

Compound	death case (male CRj:CD(SD) rats; maximum dose of 1000 mg/kg/day, oral, 14 days)	NOEL (No Observed Effect Level) (male CRj:CD(SD) rats) [mg/kg]	EC50 [1] [µg/mL]	sterilizing concentration [2] [ppm]
O=CCCCCCCCC=O [NL, 1,9-nonanedial]	death case was not found	250	–	–
O=CCCCC=O [glutaraldehyde]	–	5	9 (≈ 89.9 µM)	63
